Laboratory results reported in US10781224B2, “Bis(oxymethyl)phosphinic acid and biogenic metal salts thereof as regulators of plant growth and development” (priority 2016, dated 2020).

How the values were obtained:
Format in all cases: in vivo
[1] = test system: corn (Krasnodar 385 MV variety); assay: Corn seed treatment with BHMPA salts: germination energy and germination rate
Outline: (§1)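 Corn, winter wheat and rice seeds (50 per dish, on filter paper) were soaked for 1 h in BHMPA or its metal salts at 1·10^−6-1·10^−12%, with water as control. Germination energy was read on day 4 and germination rate on day 8 for wheat and day 7 for rice and corn, following GOST 12038-84, as the mean of four replicates.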

[2] = test system: corn (Krasnodar 385 MV variety); assay: Corn seed treatment with BHMPA salts: germinating power
Outline: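 Seeds (50 per Petri dish on two layers of filter paper) soaked 1 h in BHMPA or its Ca, Mg, Na, Co, Mn, Cu or Zn salts at 1·10^−6-1·10^−12%, with water controls. Germination energy read on day 4, germination on day 8 (wheat) or day 7 (rice, corn), as % means of four replicates. Germinating power taken as root and sprout length plus wet and dry mass per 100 seedlings.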

[3] = test system: rice (Diamant variety); assay: Rice seed treatment with BHMPA salts: germination energy and germination rate
Outline: as §1

[4] = comparative study vs Melaphen, 1·10^−9% solution
[5] = corn seeds, solution concentration 1 · 10^−6%, manganese salt of BHMPA
[6] = corn seeds, solution concentration 1 · 10^−7%, manganese salt of BHMPA
[7] = corn seeds, solution concentration 1 · 10^−8%, manganese salt of BHMPA
[8] = corn seeds, solution concentration 1 · 10^−9%, manganese salt of BHMPA
[9] = corn seeds, solution concentration 1 · 10^−10%, manganese salt of BHMPA
[10] = corn seeds, solution concentration 1 · 10^−11%, manganese salt of BHMPA
[11] = corn seeds, solution concentration 1 · 10^−12%, manganese salt of BHMPA
[12] = rice seed treatment, solution 1 · 10^−9%
[13] = seed treatment, concentration 1 · 10^−6%
[14] = seed treatment, concentration 1 · 10^−7%
[15] = seed treatment, concentration 1 · 10^−8%
[16] = seed treatment, concentration 1 · 10^−9%
[17] = seed treatment, concentration 1 · 10^−10%
[18] = seed treatment, concentration 1 · 10^−11%
[19] = seed treatment, concentration 1 · 10^−12%

O.O.O=P([O-])(CO)CO.O=P([O-])(CO)CO.[Mn+2] [Mn-salt, Manganese BHMPA Salt]
Germination energy ([1]; 1·10^−6% solution): 81.0% | Germination rate ([1]; 1·10^−6% solution): 83.3% | Germination energy ([1]; 1·10^−7% solution): 82.3% | Germination rate ([1]; 1·10^−7% solution): 85.0% | Germination energy ([1]; 1·10^−8% solution): 84.7% | Germination rate ([1]; 1·10^−8% solution): 87.5% | Germination energy ([1]; 1·10^−9% solution): 87.7% | Germination rate ([1]; 1·10^−9% solution): 88.7% | Germination rate ([1]; 1·10^−9% solution, listed as Mn): 90.0% | Germination energy ([1]; 1·10^−10% solution): 85.0% | Germination rate ([1]; 1·10^−10% solution): 87.5% | Germination energy ([1]; 1·10^−11% solution): 82.7% | Germination rate ([1]; 1·10^−11% solution): 85.3% | Germination energy ([1]; 1·10^−12% solution): 80.3% | Germination rate ([1]; 1·10^−12% solution): 83.0% | Germination energy [1, 4]: 87.3% | Germination rate [1, 4]: 95.0% | optimum concentration for treating corn seeds before sowing ([2]; corn): 1·10^−9% | Length, root [2, 5]: 4.6 cm | Length, root, + % to control [2, 5]: −4% | Length, sprout [2, 5]: 2.8 cm | Length, sprout, + % to control [2, 5]: −18% | Mass, dry, root [2, 5]: 1.47 g/100 plantlings | Mass, dry, root, + % to control [2, 5]: 6% | Mass, dry, sprout [2, 5]: 0.83 g/100 plantlings | Mass, dry, sprout, + % to control [2, 5]: 5% | Mass, wet, root [2, 5]: 9.87 g/100 plantlings | Mass, wet, root, + % to control [2, 5]: 12% | Mass, wet, sprout [2, 5]: 5.92 g/100 plantlings | Mass, wet, sprout, + % to control [2, 5]: 0% | Length, root [2, 6]: 5.0 cm | Length, root, + % to control [2, 6]: 4% | Length, sprout [2, 6]: 3.1 cm | Length, sprout, + % to control [2, 6]: −9% | Mass, dry, root [2, 6]: 1.55 g/100 plantlings | Mass, dry, root, + % to control [2, 6]: 11.5% | Mass, dry, sprout [2, 6]: 0.89 g/100 plantlings | Mass, dry, sprout, + % to control [2, 6]: 13% | Mass, wet, root [2, 6]: 10.61 g/100 plantlings | Mass, wet, root, + % to control [2, 6]: 20% | Mass, wet, sprout [2, 6]: 6.63 g/100 plantlings | Mass, wet, sprout, + % to control [2, 6]: 12% | Length, root [2, 7]: 5.4 cm | Length, root, + % to control [2, 7]: 12.5% | Length, sprout [2, 7]: 3.6 cm | Length, sprout, + % to control [2, 7]: 6% | Mass, dry, root [2, 7]: 1.69 g/100 plantlings | Mass, dry, root, + % to control [2, 7]: 21.5% | Mass, dry, sprout [2, 7]: 1.05 g/100 plantlings | Mass, dry, sprout, + % to control [2, 7]: 33% | Mass, wet, root [2, 7]: 11.92 g/100 plantlings | Mass, wet, root, + % to control [2, 7]: 35% | Mass, wet, sprout [2, 7]: 7.03 g/100 plantlings | Mass, wet, sprout, + % to control [2, 7]: 19% | Length, root [2, 8]: 5.8 cm | Length, root, + % to control [2, 8]: 21% | Length, sprout [2, 8]: 3.9 cm | Length, sprout, + % to control [2, 8]: 15% | Mass, dry, root [2, 8]: 1.82 g/100 plantlings | Mass, dry, root, + % to control [2, 8]: 31% | Mass, dry, sprout [2, 8]: 1.25 g/100 plantlings | Mass, wet, root [2, 8]: 12.62 g/100 plantlings | Mass, wet, root, + % to control [2, 8]: 43% | Mass, wet, sprout [2, 8]: 7.69 g/100 plantlings | Mass, wet, sprout, + % to control [2, 8]: 30% | Length, root [2, 9]: 5.5 cm | Length, root, + % to control [2, 9]: 14.5% | Length, sprout [2, 9]: 3.7 cm | Length, sprout, + % to control [2, 9]: 9% | Mass, dry, root [2, 9]: 1.72 g/100 plantlings | Mass, dry, root, + % to control [2, 9]: 24% | Mass, dry, sprout [2, 9]: 1.17 g/100 plantlings | Mass, dry, sprout, + % to control [2, 9]: 48% | Mass, wet, root [2, 9]: 12.06 g/100 plantlings | Mass, wet, root, + % to control [2, 9]: 36.5% | Mass, wet, sprout [2, 9]: 7.29 g/100 plantlings | Mass, wet, sprout, + % to control [2, 9]: 23.5% | Length, root [2, 10]: 5.3 cm | Length, root, + % to control [2, 10]: 10% | Length, sprout [2, 10]: 3.4 cm | Length, sprout, + % to control [2, 10]: 0% | Mass, dry, root [2, 10]: 1.61 g/100 plantlings | Mass, dry, root, + % to control [2, 10]: 16% | Mass, dry, sprout [2, 10]: 0.92 g/100 plantlings | Mass, dry, sprout, + % to control [2, 10]: 16% | Mass, wet, root [2, 10]: 11.78 g/100 plantlings | Mass, wet, root, + % to control [2, 10]: 33% | Mass, wet, sprout [2, 10]: 6.91 g/100 plantlings | Mass, wet, sprout, + % to control [2, 10]: 17% | Length, root [2, 11]: 4.9 cm | Length, root, + % to control [2, 11]: 2% | Length, sprout [2, 11]: 2.9 cm | Length, sprout, + % to control [2, 11]: −15% | Mass, dry, root [2, 11]: 1.47 g/100 plantlings | Mass, dry, root, + % to control [2, 11]: 6% | Mass, dry, sprout [2, 11]: 0.79 g/100 plantlings | Mass, dry, sprout, + % to control [2, 11]: 0% | Mass, wet, root [2, 11]: 10.88 g/100 plantlings | Mass, wet, root, + % to control [2, 11]: 23% | Mass, wet, sprout [2, 11]: 6.28 g/100 plantlings | Mass, wet, sprout, + % to control [2, 11]: 6% | effectiveness on germinating power ([2]; corn, 1·10^−6%, 1·10^−7%, 1·10^−11% and 1·10^−12% solutions): ineffective | Length, root, + % to control ([2]; corn, 1·10^−9% solution): 21% | Length, sprout, + % to control ([2]; corn, 1·10^−9% solution): 15% | Mass, dry, root, + % to control ([2]; corn, 1·10^−9% solution): 31% | Mass, dry, sprout, + % to control ([2]; corn, 1·10^−9% solution): 58% | Mass, wet, root, + % to control ([2]; corn, 1·10^−9% solution): 43% | Mass, wet, sprout, + % to control ([2]; corn, 1·10^−9% solution): 30% | Germination energy, % [3, 12]: 86.7% | Germination rate, % [3, 12]: 93.0% | Germination energy ([3]; rice, 1·10^−9% solution): 85.3% | Germination rate ([3]; rice, 1·10^−9% solution): 91.7% | Germination energy [3, 13]: 77.0% | Germination rate [3, 13]: 82.7% | Germination energy [3, 14]: 79.3% | Germination rate [3, 14]: 85.0% | Germination energy [3, 15]: 82.7% | Germination rate [3, 15]: 86.7% | Germination energy [3, 16]: 85.3% | Germination rate [3, 16]: 91.7% | Germination energy [3, 17]: 83.3% | Germination rate [3, 17]: 88.3% | Germination energy [3, 18]: 81.0% | Germination rate [3, 18]: 86.0% | Germination energy [3, 19]: 78.0% | Germination rate [3, 19]: 83.0%
